In the NIST ThermoML archive (doi:10.1016/j.jct.2012.08.023):

Assay: mn = molality of the nth substance listed, in mol/kg
Conditions: 101.3 kPa, Liquid; for speed of sound: Single path-length method; for mass density: Vibrating tube method

COCCO [2-methoxyethan-1-ol] + O
Conditions	mass density, 288.15 K [kg/m3]	mass density, 298.15 K [kg/m3]	mass density, 308.15 K [kg/m3]	speed of sound, 288.15 K [m/s]	speed of sound, 298.15 K [m/s]	speed of sound, 308.15 K [m/s]
m1 = 0.1766	999.359	997.221	994.075	1475.3	1504.9	1526.1
m1 = 0.3377	999.461	997.304	994.169	1487.3	1511.2	1531.6
m1 = 0.3987	999.495	997.331	994.202	1486.9	1513.8	1533.1
m1 = 0.5117	999.548	997.377	994.256	1492.9	1518	1537
m1 = 0.6355	999.593	997.421	994.305	1498.1	1522.9	1540.5
m1 = 0.7947	999.638	997.462	994.361	1506.8	1529.3	1546
m1 = 1.012	999.666	997.507	994.412	1518.1	1539.1	1553.7

COCCOCCOCCO [2-[2-(2-methoxyethoxy)ethoxy]ethanol] + O
Conditions	mass density, 288.15 K [kg/m3]	mass density, 298.15 K [kg/m3]	mass density, 308.15 K [kg/m3]	speed of sound, 288.15 K [m/s]	speed of sound, 298.15 K [m/s]	speed of sound, 308.15 K [m/s]
m1 = 0.0992	1000.76	998.595	995.371	1476.9	1505.2	1526.8
m1 = 0.2191	1002.54	1000.32	997.022	1490.1	1516.8	1535.9
m1 = 0.4289	1005.5	1003.2	999.755	1510.7	1533	1549.8
m1 = 0.5088	1006.57	1004.24	1000.75	1517.7	1539.4	1554.7
m1 = 0.5825	1007.53	1005.17	1001.64	1525	1544.9	1559.5
m1 = 0.7077	1009.12	1006.71	1003.1	1537.2	1555.8	1568.3
m1 = 0.7956	1010.2	1007.75	1004.09	1543.9	1560.4	1572.2
m1 = 0.9789	1012.35	1009.85	1006.07	1467.3	1570.5	1580

CCCCn1cc[n+](C)c1.[Br-] [1-butyl-3-methylimidazolium bromide] + O
Conditions	mass density, 288.15 K [kg/m3]	mass density, 298.15 K [kg/m3]	mass density, 308.15 K [kg/m3]	speed of sound, 288.15 K [m/s]	speed of sound, 298.15 K [m/s]	speed of sound, 308.15 K [m/s]
m1 = 0.0915	996.409	996.531	991.528	1490.7	1516.7	1535.5
m1 = 0.0969	1001.56	999.293	996.365	1489.1	1517	1537.9
m1 = 0.1014	989.502	997.101	992.565	1490.9	1520.2	1540.2
m1 = 0.2656	1010.44	1007.45	1005.51	1511.6	1536.2	1554.5
m1 = 0.2803	1007.11	1005.82	1002.41	1512.3	1536.8	1555.3
m1 = 0.2869	1010.49	1005.51	1001.76	1512.3	1536.8	1555.3

COCCOCCO [2-(2-methoxyethoxy)ethanol] + O
Conditions	mass density, 288.15 K [kg/m3]	mass density, 298.15 K [kg/m3]	mass density, 308.15 K [kg/m3]	speed of sound, 288.15 K [m/s]	speed of sound, 298.15 K [m/s]	speed of sound, 308.15 K [m/s]
m1 = 0.1113	999.888	997.716	994.536	1477.1	1505.1	1526.8
m1 = 0.1346	1000.02	997.84	994.655	1480.4	1508.5	1529.1
m1 = 0.3285	1001.11	998.835	995.615	1494.2	1519.7	1538.8
m1 = 0.4005	1001.49	999.182	995.953	1498.2	1523.4	1541.4
m1 = 0.62	1002.6	1000.22	996.952	1516.3	1537.8	1553.6
m1 = 0.7114	1003.02	1000.62	997.341	1523.8	1544.5	1558.8
m1 = 0.9906	1004.26	1001.81	998.476	1539.6	1556.8	1569.1
m1 = 1.052	1004.52	1002.03	993.955	1548	1497.7	1574.7
